Values after ≈ are worked out from the molar mass of the structure shown. Active and inactive are the calls of the source. The rule behind the calls is not given here.
Assays:
Assay type in all cases: functional
Candida parapsilosis = experiment: Antifungal activity against Candida parapsilosis ATCC 22019 after 24 hrs by twofold serial agar dilution technique; settings: for MIC: Lodderomyces parapsilosis, ATCC 22019, 24 h
Escherichia coli [1] = experiment: Antibacterial activity against Escherichia coli NCTC 8196 after 18 hrs by twofold serial agar dilution technique; settings: for MIC: NCTC 8196, 18 h
[2] = test system: Staphylococcus epidermidis; experiment: Antibacterial activity against Staphylococcus epidermidis ATCC 12228 after 18 hrs by twofold serial agar dilution technique; settings: ATCC 12228, 18 h
Staphylococcus aureus [3] = experiment: Antibacterial activity against Staphylococcus aureus ATCC 29213 after 18 hrs by twofold serial agar dilution technique; settings: ATCC 29213, 18 h
Staphylococcus aureus [4] = experiment: Antibacterial activity against Staphylococcus aureus ATCC 25923 assessed as zone of inhibition at 400 ug/disc after 18 hrs by disc diffusion method; settings: ATCC 25923, 18 h, read-out: DIZ
Staphylococcus aureus [5] = experiment: Antibacterial activity against Staphylococcus aureus ATCC 29213 assessed as zone of inhibition at 400 ug/disc after 18 hrs by disc diffusion method; settings: ATCC 29213, 18 h, read-out: DIZ
Candida albicans [6] = experiment: Antifungal activity against Candida albicans ATCC 90028 after 24 hrs by twofold serial agar dilution technique; settings: for MIC: ATCC 90028, 24 h
Staphylococcus aureus [7] = experiment: Antibacterial activity against Staphylococcus aureus ATCC 6538 after 18 hrs by twofold serial agar dilution technique; settings: ATCC 6538, 18 h
Escherichia coli [8] = experiment: Antibacterial activity against Escherichia coli ATCC 25922 assessed as zone of inhibition at 400 ug/disc after 18 hrs by disc diffusion method; settings: ATCC 25922, 18 h, read-out: DIZ
Candida albicans [9] = experiment: Antifungal activity against Candida albicans ATCC 10231 after 24 hrs by twofold serial agar dilution technique; settings: for MIC: ATCC 10231, 24 h
Pseudomonas aeruginosa [10] = experiment: Antibacterial activity against Pseudomonas aeruginosa ATCC 27853 after 18 hrs by twofold serial agar dilution technique; settings: for MIC: ATCC 27853, 18 h
Staphylococcus aureus [11] = experiment: Antibacterial activity against Staphylococcus aureus ATCC 25923 after 18 hrs by twofold serial agar dilution technique; settings: ATCC 25923, 18 h
[12] = test system: Staphylococcus epidermidis; experiment: Antibacterial activity against Staphylococcus epidermidis ATCC 35984 after 18 hrs by twofold serial agar dilution technique; settings: ATCC 35984, 18 h
Pseudomonas aeruginosa [13] = experiment: Antibacterial activity against Pseudomonas aeruginosa ATCC 27853 assessed as zone of inhibition at 400 ug/disc after 18 hrs by disc diffusion method; settings: ATCC 27853, 18 h, read-out: DIZ
Staphylococcus aureus [14] = experiment: Antibacterial activity against Staphylococcus aureus NCTC 4163 assessed as zone of inhibition at 400 ug/disc after 18 hrs by disc diffusion method; settings: NCTC 4163, 18 h, read-out: DIZ
Pseudomonas aeruginosa [15] = experiment: Antibacterial activity against Pseudomonas aeruginosa NCTC 6749 assessed as zone of inhibition at 400 ug/disc after 18 hrs by disc diffusion method; settings: NCTC 6749, 18 h, read-out: DIZ
[16] = test system: Staphylococcus epidermidis; experiment: Antibacterial activity against Staphylococcus epidermidis ATCC 12228 assessed as zone of inhibition at 400 ug/disc after 18 hrs by disc diffusion method; settings: ATCC 12228, 18 h, read-out: DIZ
[17] = test system: Bordetella bronchiseptica; experiment: Antibacterial activity against Bordetella bronchiseptica ATCC 4617 assessed as zone of inhibition at 400 ug/disc after 18 hrs by disc diffusion method; settings: ATCC 4617, 18 h, read-out: DIZ
Escherichia coli [18] = experiment: Antibacterial activity against Escherichia coli ATCC 10538 assessed as zone of inhibition at 400 ug/disc after 18 hrs by disc diffusion method; settings: ATCC 10538, 18 h, read-out: DIZ
Pseudomonas aeruginosa [19] = experiment: Antibacterial activity against Pseudomonas aeruginosa ATCC 15442 assessed as zone of inhibition at 400 ug/disc after 18 hrs by disc diffusion method; settings: ATCC 15442, 18 h, read-out: DIZ
Pseudomonas aeruginosa [20] = experiment: Antibacterial activity against Pseudomonas aeruginosa NCTC 6749 after 18 hrs by twofold serial agar dilution technique; settings: for MIC: NCTC 6749, 18 h
[21] = test system: Bordetella bronchiseptica; experiment: Antibacterial activity against Bordetella bronchiseptica ATCC 4617 after 18 hrs by twofold serial agar dilution technique; settings: for MIC: ATCC 4617, 18 h
Escherichia coli [22] = experiment: Antibacterial activity against Escherichia coli ATCC 25922 after 18 hrs by twofold serial agar dilution technique; settings: ATCC 25922, 18 h
Proteus vulgaris [23] = experiment: Antibacterial activity against Proteus vulgaris NCTC 4635 after 18 hrs by twofold serial agar dilution technique; settings: for MIC: NCTC 4635, 18 h
Escherichia coli [24] = experiment: Antibacterial activity against Escherichia coli NCTC 8196 assessed as zone of inhibition at 400 ug/disc after 18 hrs by disc diffusion method; settings: NCTC 8196, 18 h, read-out: DIZ
[25] = test system: Staphylococcus epidermidis; experiment: Antibacterial activity against Staphylococcus epidermidis ATCC 35984 assessed as zone of inhibition at 400 ug/disc after 18 hrs by disc diffusion method; settings: ATCC 35984, 18 h, read-out: DIZ
Staphylococcus aureus [26] = experiment: Antibacterial activity against Staphylococcus aureus ATCC 6538 assessed as zone of inhibition at 400 ug/disc after 18 hrs by disc diffusion method; settings: ATCC 6538, 18 h, read-out: DIZ
Staphylococcus aureus [27] = experiment: Antibacterial activity against Staphylococcus aureus NCTC 4163 after 18 hrs by twofold serial agar dilution technique; settings: NCTC 4163, 18 h
Escherichia coli [28] = experiment: Antibacterial activity against Escherichia coli ATCC 10538 after 18 hrs by twofold serial agar dilution technique; settings: for MIC: ATCC 10538, 18 h
Pseudomonas aeruginosa [29] = experiment: Antibacterial activity against Pseudomonas aeruginosa ATCC 15442 after 18 hrs by twofold serial agar dilution technique; settings: for MIC: ATCC 15442, 18 h
Proteus vulgaris [30] = experiment: Antibacterial activity against Proteus vulgaris NCTC 4635 assessed as zone of inhibition at 400 ug/disc after 18 hrs by disc diffusion method; settings: NCTC 4635, 18 h, read-out: DIZ

Compound	MIC (Candida parapsilosis) [µg/mL]	MIC (Escherichia coli [1]) [µg/mL]	MIC [2] [µg/mL]	MIC (Staphylococcus aureus [3]) [µg/mL]	zone of inhibition at 400 µg/disc (Staphylococcus aureus [4]) [mm]	zone of inhibition at 400 µg/disc (Staphylococcus aureus [5]) [mm]	MIC (Candida albicans [6]) [µg/mL]	MIC (Staphylococcus aureus [7]) [µg/mL]	zone of inhibition at 400 µg/disc (Escherichia coli [8]) [mm]	MIC (Candida albicans [9]) [µg/mL]	MIC (Pseudomonas aeruginosa [10]) [µg/mL]	MIC (Staphylococcus aureus [11]) [µg/mL]	MIC [12] [µg/mL]	zone of inhibition at 400 µg/disc (Pseudomonas aeruginosa [13]) [mm]	zone of inhibition at 400 µg/disc (Staphylococcus aureus [14]) [mm]	zone of inhibition at 400 µg/disc (Pseudomonas aeruginosa [15]) [mm]	zone of inhibition at 400 µg/disc [16] [mm]	zone of inhibition at 400 µg/disc [17] [mm]	zone of inhibition at 400 µg/disc [25] [mm]	zone of inhibition at 400 µg/disc (Staphylococcus aureus [26]) [mm]	further results
CC[C@@H](C(=O)[C@@H](C)[C@@H](O)[C@H](C)[C@@H]1O[C@@H]([C@@H](CC)C(=O)NCCc2c[nH]c3ccccc23)CC[C@@H]1C)[C@H]1O[C@]2(C=C[C@@H](O)[C@]3(CC[C@@](C)([C@H]4CC[C@](O)(CC)[C@H](C)O4)O3)O2)[C@H](C)C[C@@H]1C	≥ 256	≥ 256	≥ 256	≥ 256	10	10	≥ 256	≥ 256	10	≥ 256	≥ 256	≥ 256	≥ 256	10	10	10	10	10	10	10	zone of inhibition at 400 µg/disc (Escherichia coli [18]): 10 mm; zone of inhibition at 400 µg/disc (Pseudomonas aeruginosa [19]): 10 mm; MIC (Pseudomonas aeruginosa [20]): ≥ 256 µg/mL; MIC [21]: ≥ 256 µg/mL; MIC (Escherichia coli [22]): ≥ 256 µg/mL; MIC (Proteus vulgaris [23]): ≥ 256 µg/mL; zone of inhibition at 400 µg/disc (Escherichia coli [24]): 10 mm; MIC (Staphylococcus aureus [27]): ≥ 256 µg/mL; MIC (Escherichia coli [28]): ≥ 256 µg/mL; MIC (Pseudomonas aeruginosa [29]): ≥ 256 µg/mL; zone of inhibition at 400 µg/disc (Proteus vulgaris [30]): 10 mm
O=C(O)c1cn(C2CC2)c2cc(N3CCNCC3)c(F)cc2c1=O [CIPROFLOXACIN]				0.25 (≈ 0.754 µM)	26	22							0.25 (≈ 0.754 µM)		26		30		32	28	Activity (Candida parapsilosis): inactive; Activity (Escherichia coli [1]): inactive; Activity (Candida albicans [6]): inactive; Activity (Candida albicans [9]): inactive; Activity (Pseudomonas aeruginosa [10]): inactive; Activity (Pseudomonas aeruginosa [20]): inactive; Activity [21]: inactive; Activity (Proteus vulgaris [23]): inactive; Activity (Escherichia coli [28]): inactive; Activity (Pseudomonas aeruginosa [29]): inactive
CCCCNC(=O)[C@H](CC)[C@H]1CC[C@H](C)[C@H]([C@@H](C)[C@H](O)[C@H](C)C(=O)[C@H](CC)[C@H]2O[C@]3(C=C[C@@H](O)[C@]4(CC[C@@](C)([C@H]5CC[C@](O)(CC)[C@H](C)O5)O4)O3)[C@H](C)C[C@@H]2C)O1	≥ 256	≥ 256	≥ 256	≥ 256	10	10	≥ 256	≥ 256	10	≥ 256	≥ 256	≥ 256	≥ 256	10	10	10	10	10	10	10	zone of inhibition at 400 µg/disc (Escherichia coli [18]): 10 mm; zone of inhibition at 400 µg/disc (Pseudomonas aeruginosa [19]): 10 mm; MIC (Pseudomonas aeruginosa [20]): ≥ 256 µg/mL; MIC [21]: ≥ 256 µg/mL; MIC (Escherichia coli [22]): ≥ 256 µg/mL; MIC (Proteus vulgaris [23]): ≥ 256 µg/mL; zone of inhibition at 400 µg/disc (Escherichia coli [24]): 10 mm; MIC (Staphylococcus aureus [27]): ≥ 256 µg/mL; MIC (Escherichia coli [28]): ≥ 256 µg/mL; MIC (Pseudomonas aeruginosa [29]): ≥ 256 µg/mL; zone of inhibition at 400 µg/disc (Proteus vulgaris [30]): 10 mm
